# Reference: patent US8952024B2, “Herbicidal pyrimidone derivatives” (E I du Pont de Nemours and Company, priority 2009, dated 2015)
# Columns and labels:
# Assay in all cases: Test B pre-/postemergence plant response
# Format in all cases: in vivo
# [1] = system: Italian ryegrass (Lolium multiflorum)
# How it was run: (§1)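 Seeds were sown in loam soil/sand blend and treated preemergence with compound in non-phytotoxic solvent mixture containing surfactant; postemergence sprays, same formulation, went onto plants 2 to 18 cm (1- to 4-leaf stage) in peat-based planting medium. Greenhouse 13 to 15 days, then visual rating versus untreated controls, 0 (no effect) to 100 (complete control).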
# [2] = system: ragweed (common ragweed, Ambrosia elatior)
# How it was run: as §1
# [3] = system: wheat (Triticum aestivum)
# How it was run: as §1
# wild oat (Avena fatua) = system: wild oat (Avena fatua)
# How it was run: as §1
# [4] = system: downy bromegrass (Bromus tectorum)
# How it was run: as §1
# [5] = system: Surinam grass (Brachiaria decumbens)
# How it was run: as §1
# kochia (Kochia scoparia) = system: kochia (Kochia scoparia)
# How it was run: as §1
# [6] = system: morningglory (Ipomoea coccinea)
# How it was run: as §1
# [7] = system: large crabgrass (Digitaria sanguinalis)
# How it was run: as §1
# [8] = system: blackgrass (Alopecurus myosuroides)
# How it was run: as §1
# [9] = system: bermudagrass (Cynodon dactylon)
# How it was run: as §1
# [10] = system: woolly cupgrass (Eriochloa villosa)
# How it was run: as §1
# [11] = system: cocklebur (Xanthium strumarium)
# How it was run: as §1
# [12] = 62 g ai/ha, postemergence, 0 is no effect, 100 is complete control, 13 to 15 days
# [13] = Postemergence, 125 g ai/ha, scale 0 to 100 (0 no effect, 100 complete control)
# [14] = Postemergence, 250 g ai/ha, scale 0 to 100 (0 no effect, 100 complete control)
# [15] = Preemergence, 31 g ai/ha, scale 0 to 100 (0 no effect, 100 complete control)
# [16] = Preemergence, 62 g ai/ha, scale 0 to 100 (0 no effect, 100 complete control)
# [17] = Preemergence, 125 g ai/ha, scale 0 to 100, 0 no effect, 100 complete control
# [18] = Preemergence, 250 g ai/ha, 0 to 100 scale
# [19] = 31 g ai/ha, postemergence, scale 0 to 100, 0 is no effect, 100 is complete control
smiles,measurement,setting,value
COCCn1c(-c2cc(F)cc(F)c2)ncc(C(=O)C2=C(O)CCCC2=O)c1=O [Compound 119],"Ryegrass, Italian plant response rating (0 to 100 scale)",[1]; [12],30
same,"Plant response rating, Ryegrass, Italian",[1]; [13],60
same,"Plant response rating, Ryegrass, Italian",[1]; [14],85
same,"Plant response rating, Ryegrass, Italian",[1]; [15],100
same,"Plant response rating, Ryegrass, Italian",[1]; [16],100
same,"Plant response rating, Ryegrass, Italian",[1]; [17],100
same,"Ryegrass, Italian plant response rating",[1]; [18],100
same,Ragweed plant response rating (0 to 100 scale),[2]; [12],75
same,"Plant response rating, Ragweed",[2]; [13],95
same,"Plant response rating, Ragweed",[2]; [14],98
same,"Plant response rating, Ragweed",[2]; [15],80
same,"Plant response rating, Ragweed",[2]; [16],80
same,"Plant response rating, Ragweed",[2]; [17],95
same,Ragweed plant response rating,[2]; [18],95
same,Wheat plant response rating (0 to 100 scale),[3]; [12],40
same,"Plant response rating, Wheat",[3]; [13],60
same,"Plant response rating, Wheat",[3]; [15],0
same,"Plant response rating, Wheat",[3]; [16],0
same,"Plant response rating, Wheat",[3]; [17],30
same,Wheat plant response rating,[3]; [18],50
same,"Plant response rating, Oat, Wild",wild oat (Avena fatua); [19],50
same,"Oat, Wild plant response rating (0 to 100 scale)",wild oat (Avena fatua); [12],60
same,"Plant response rating, Oat, Wild",wild oat (Avena fatua); [13],95
same,"Plant response rating, Oat, Wild",wild oat (Avena fatua); [14],95
same,"Plant response rating, Oat, Wild",wild oat (Avena fatua); [15],0
same,"Plant response rating, Oat, Wild",wild oat (Avena fatua); [16],45
same,"Plant response rating, Oat, Wild",wild oat (Avena fatua); [17],50
same,"Oat, Wild plant response rating",wild oat (Avena fatua); [18],80
same,"Plant response rating, Bromegrass, Downy",[4]; [19],10
same,"Bromegrass, Downy plant response rating (0 to 100 scale)",[4]; [12],30
same,"Plant response rating, Bromegrass, Downy",[4]; [13],60
same,"Plant response rating, Bromegrass, Downy",[4]; [14],85
same,"Plant response rating, Bromegrass, Downy",[4]; [15],0
same,"Plant response rating, Bromegrass, Downy",[4]; [16],50
same,"Plant response rating, Bromegrass, Downy",[4]; [17],55
same,"Bromegrass, Downy plant response rating",[4]; [18],55
same,Surinam Grass plant response rating (0 to 100 scale),[5]; [12],85
same,"Plant response rating, Surinam Grass",[5]; [13],95
same,"Plant response rating, Surinam Grass",[5]; [14],98
same,"Plant response rating, Surinam Grass",[5]; [15],90
same,"Plant response rating, Surinam Grass",[5]; [16],98
same,"Plant response rating, Surinam Grass",[5]; [17],100
same,Surinam Grass plant response rating,[5]; [18],100
same,"Plant response rating, Kochia",kochia (Kochia scoparia); [19],40
same,Kochia plant response rating (0 to 100 scale),kochia (Kochia scoparia); [12],75
same,"Plant response rating, Kochia",kochia (Kochia scoparia); [13],95
same,"Plant response rating, Kochia",kochia (Kochia scoparia); [14],100
same,"Plant response rating, Kochia",kochia (Kochia scoparia); [15],0
same,"Plant response rating, Kochia",kochia (Kochia scoparia); [16],0
same,"Plant response rating, Kochia",kochia (Kochia scoparia); [17],55
same,Kochia plant response rating,kochia (Kochia scoparia); [18],98
same,"Plant response rating, Morningglory",[6]; [19],10
same,Morningglory plant response rating (0 to 100 scale),[6]; [12],60
same,"Plant response rating, Morningglory",[6]; [13],95
same,"Plant response rating, Morningglory",[6]; [14],95
same,"Plant response rating, Morningglory",[6]; [15],60
same,"Plant response rating, Morningglory",[6]; [16],95
same,"Plant response rating, Morningglory",[6]; [17],95
same,Morningglory plant response rating,[6]; [18],95
same,"Plant response rating, Crabgrass, Large",[7]; [19],75
same,"Crabgrass, Large plant response rating (0 to 100 scale)",[7]; [12],85
same,"Plant response rating, Crabgrass, Large",[7]; [13],95
same,"Plant response rating, Crabgrass, Large",[7]; [14],95
same,"Plant response rating, Crabgrass, Large",[7]; [15],100
same,"Plant response rating, Crabgrass, Large",[7]; [16],100
same,"Plant response rating, Crabgrass, Large",[7]; [17],100
same,"Crabgrass, Large plant response rating",[7]; [18],100
same,"Plant response rating, Blackgrass",[8]; [19],5
same,Blackgrass plant response rating (0 to 100 scale),[8]; [12],20
same,"Plant response rating, Blackgrass",[8]; [13],50
same,"Plant response rating, Blackgrass",[8]; [14],50
same,"Plant response rating, Blackgrass",[8]; [15],30
same,"Plant response rating, Blackgrass",[8]; [16],30
same,"Plant response rating, Blackgrass",[8]; [17],50
same,Blackgrass plant response rating,[8]; [18],70
same,"Plant response rating, Bermudagrass",[9]; [19],75
same,Bermudagrass plant response rating (0 to 100 scale),[9]; [12],98
same,"Plant response rating, Bermudagrass",[9]; [13],98
same,"Plant response rating, Bermudagrass",[9]; [14],98
same,"Plant response rating, Bermudagrass",[9]; [15],100
same,"Plant response rating, Bermudagrass",[9]; [16],100
same,"Plant response rating, Bermudagrass",[9]; [17],100
same,Bermudagrass plant response rating,"[9]; Preemergence, 250 g ai/ha, 0 to 100 scale, 0 no effect, 100 complete control",100
same,"Plant response rating, Cupgrass, Woolly",[10]; [19],75
same,"Cupgrass, Woolly plant response rating (0 to 100 scale)",[10]; [12],98
same,"Plant response rating, Cupgrass, Woolly",[10]; [13],98
same,"Plant response rating, Cupgrass, Woolly",[10]; [14],100
same,"Plant response rating, Cupgrass, Woolly",[10]; [15],65
same,"Plant response rating, Cupgrass, Woolly",[10]; [16],75
same,"Plant response rating, Cupgrass, Woolly",[10]; [17],95
same,"Cupgrass, Woolly plant response rating",[10]; [18],100
same,"Plant response rating, Cocklebur",[11]; [19],0
same,Cocklebur plant response rating (0 to 100 scale),[11]; [12],10
same,"Plant response rating, Cocklebur",[11]; [13],80
same,"Plant response rating, Cocklebur",[11]; [14],95
same,"Plant response rating, Cocklebur",[11]; [15],0
same,"Plant response rating, Cocklebur",[11]; [17],70
same,Cocklebur plant response rating,[11]; [18],85
